Reference: ChEMBL document CHEMBL1129986, “Reliability of comparative molecular field analysis models: effects of data scaling and variable selection using a set of human synovial fluid phospholipase A2 inhibitors” (J Med Chem, 1997)

Biological target: T1, Phospholipase A2, membrane associated (Homo sapiens) (UniProt P14555)
T1 sequence (whole entry): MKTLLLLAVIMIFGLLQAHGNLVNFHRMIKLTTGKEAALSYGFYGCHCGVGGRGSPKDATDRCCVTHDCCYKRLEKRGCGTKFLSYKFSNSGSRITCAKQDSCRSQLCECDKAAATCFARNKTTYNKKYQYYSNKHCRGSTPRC
Test: Inhibitory activity against human synovial fluid phospholipase A2 (HSF-PLA2).
Set-up: concentration or dose not given beside the values
Details: concentration not given here

Row | Compound | inhibition
1 | CCCCCCCCCCC(=O)NC(CCCCCC)COP(=O)(O)OCCNCc1ccccc1 (stereo not given) | 28%
2 | CCCCCCCCCCS(=O)(=O)NC(CCCCCC)COCC(F)(F)F (stereo not given) | 0%
3 | CCCCCCCCCCS(=O)(=O)N[C@@H](CCCCCC)COP(=O)(O)OCCO | 40%
4 | CCCCCCCCCCS(=O)(=O)NC(CCCCCC)COP(=O)(O)OCCO (stereo not given) | 36%
5 | CCCCCCCCCCS(=O)(=O)N[C@H](CCCCCC)COP(=O)(O)OCCO (stereo in doubt; form 2) | 45%
6 | CCCCCCCCCCCC(=O)NC(CCCCCC)COP(=O)(O)OCCO (stereo not given) | 65%
7 | CCCCCCCCCCS(=O)(=O)N[C@H](CCCCCC)COP(=O)(O)OCCOCc1ccccc1 | 78%
8 | CCCCCCCCCCS(=O)(=O)CC(CCCCCC)COP(=O)(O)OCCO (stereo not given) | 29%
9 | CCCCCCCCCCS(=O)(=O)N[C@H](CCCCCC)COP(=O)(O)OCCO (stereo in doubt; form 1) | 44%
10 | CCCCCCCCCCS(=O)(=O)NC(CCCCCC)COP(=O)(O)OCCCC (stereo not given) | 0%
